Experimental data: patent US10370391B2, “Hydrogen peroxide-activable, anti-oxidant compounds and methods using same” (Beth Israel Deaconess Medical Center, Inc., priority 2014, dated 2019)

Experiments:
[1] = Water solubility of isolated BRAP; type: physicochemical; details: white powder as obtained
Excerpt: H2O2-activable anti-oxidant prodrug BRAP was synthesized by reacting (4-(hydroxymethyl)phenyl)boronic acid and 2-(hydroxymethyl)-2-methylpropane-1,3-diol at room temperature (FIG. 1A). BRAP was obtained as white water-soluble powder and its chemical structure was confirmed by ^1H NMR (FIG. 1B).

[2] = test system: H2O2-stimulated adult rat cardiomyocytes; assay: Protection from H2O2-induced cell death in ARVC; type: cell-based; details: H2O2 0.25 mM; concentration dependent; vs vehicle
Procedure: (§1) FIG. 4, comprising FIGS. 4A-4F, is a set of graphs, bar graphs and images illustrating anti-oxidant and anti-inflammatory effects of BRAP in vitro. […] The generation of ROS was monitored by flow cytometry as an indicator of DCF fluorescence. Fluorescence was analyzed in 10,000 cells with excitation at 480 nm and emission at 530 nm. FIG. 4C: Protective effect of BRAP on H2O2— stimulated adult rat cardiomyocytes. V=vehicle, *<0.05 vs. V+H2O2 (n=4). […] (n=4/group).
Since cardiovascular disease is one of the most common and clinically relevant problems associated with oxidative stress injury, the effect of BRAP on cellular protection from the H2O2-induced cell death was further examined using ARVC in vitro.

[3] = test system: mouse macrophage (RAW 264.7) cells stimulated by LPS; assay: Intracellular ROS generation in LPS-stimulated macrophages (DCFH-DA, flow cytometry); type: cell-based; details: BRAP 0.25 mM, compared with 0.5 mM of HBA; LPS 1 μg/mL
Procedure: as §1
The anti-oxidant activities of BRAP were examined using mouse macrophage (RAW 264.7) and fibroblast (NIH/3T3) cells stimulated by LPS (lipopolysaccharide) (FIGS. 4A-4B). Intracellular ROS production in the stimulated cells was analyzed by flow cytometry using DCFH-DA ([…]-diacetate), which can be oxidized by the action of various intracellular oxidants such as H2O2 and hydroxyl radical to become fluorescent […] (DCF) (Kim, et al., 2011, Biomat. 32:3021; Cho, et al., 2012, Adv. Funct. Mat. 22:4038). Untreated cells have no significant DCF fluorescence.

[4] = test system: mouse embryonic fibroblast (NIH 3T3) cells; assay: MTT cytotoxicity assay, NIH 3T3; type: cell-based; details: concentrations as high as 5 mM, 24 hours of incubation
Procedure: FIG. 8, comprising FIGS. 8A-8B, is a set of bar graphs illustrating biocompatibility profiles of BRAP assessed by MTT assay in human embryonic kidney (HEK 293) cells (FIG. 8A) and mouse embryonic fibroblast (NIH 3T3) cells (FIG. 8B).
3-(4,5-Dimethylthiazil-2yl)-2,5-diphenyltetrazolium bromide (MTT) assay was performed to evaluate the cytotoxicity of BRAP. NIH 3T3 cells were cultured at a density of 1×10^5 cells/well in a 24 well plate, and RAW 264.7 cells and HEK cells were also cultured at a density of 2×10^5 cells/well in a 24 well plate. Cells were incubated for 24 hours to reach ˜80% confluency. Cells were treated with various amount of BRAP and incubated for 24 hours. Each well was given 100 μL of MTT solution and was incubated for 4 h. 200 μL of dimethyl sulfoxide (DMSO) were added to each well to dissolve the resulting formazan crystals. After 10 min incubation, the absorbance at 570 nm was measured using a microplate reader (Biotek Instruments, Winooski, Vt.). The cell viability was determined by comparing the absorbance of BRAP treated cells that of control cells.

iNOS = iNOS level in LPS-stimulated macrophage cells; type: cell-based, mouse
Procedure: as §1
The anti-inflammatory effects of BRAP on LPS-stimulated cells were investigated by measuring the level of inflammatory cytokines such as TNF-α (tumor necrosis factor-alpha) and iNOS (inducible nitric oxide synthases) (FIGS. 4E-4F). […] These observations indicate that BRAP, as well as BRAP-encapsulated PLGA microparticles, is able to scavenge overproduced H2O2 and serve as a H2O2-activable anti-oxidant. Further, the enhanced anti-oxidant activity of BRAP is derived from the combined effects of H2O2-scavenging boronic esters and HBA generation after H2O2-mediated boronate oxidation.

[5] = test system: renal ischemia/reperfusion (I/R) injury; assay: Kidney I/R injury model in the mouse, oral BRAP; type: in vivo
Procedure: BRAP administered orally was tested in a kidney I/R injury model in the mouse. In this model, one of the mouse's kidney was subjected to ischemia for about 30 min, using a combination of unilateral clamping and contralateral nephrectomy. BRAP was administered orally to the mice at two time points: the night before the surgery, and immediately before the I/R surgery. The read-out markers after I/R comprised: creatinine levels 24 hours after reperfusion; tumor necrosis factor alpha (TNF-α) and monocyte chemo-attractant protein-1 (MCP-1) (both inflammatory markers); DHE staining (monitoring for ROS generation); and TUNEL staining (monitoring for apoptosis).

[6] = oral administration, 24 hours after reperfusion

With `CC1(CO)COB(c2ccc(CO)cc2)OC1` [BRAP, (4-(5-(hydroxymethyl)-5-methyl-1,3,2-dioxaborinan-2-yl)phenyl)methanol] the water solubility [1] was “water-soluble”, the “protection from H2O2-induced cell death” value [2] was “significant protection” and the “inhibition of LPS-induced ROS generation” value [3] was “significantly stronger inhibitory effects”. The “cytotoxicity (MTT)” value [4] was “no significant cytotoxicity”, the iNOS level (iNOS) was “significantly suppressing” and the “renal function (creatinine levels)” value ([5]; daily oral administration 8 mg/kg, after 4 days) was “significant improvement”. The “DHE staining (ROS generation) in kidney” value ([5]; oral administration) was “significantly reduced”, the “TUNEL staining (apoptosis) in kidney” value ([5]; oral administration) was “significantly reduced” and the “activation of MCP-1 in kidney” value [5, 6] was “significantly attenuated”. For the same compound, the “activation of TNF-α in kidney” value [5, 6] was “significantly attenuated”.
